Molecules are shown by their SMILES. A value given as a limit tells only on which side of the number the result lay.

The target of the assay is EN PA (Influenza A virus, UniProt P15659). Nature of the assay: EN PA FRET Inhibition Assay. Type of assay: biochemical. The settings on record: read-out: Potency.
For `CC(C)(C)c1ccc(-n2cc(O)c(=O)c(C(=O)O)n2)cc1` [Compound 3, 1-(4-tert-butylphenyl)-5-hydroxy-4-oxo-1,4-dihydropyridazine-3-carboxylic acid], the IC50 lay in the range of 0.1 to 1 µM.

On to `COc1cccc(-n2cc(O)c(=O)c(C(=O)O)n2)c1` [Compound 5], for which the IC50 lay in the range of 0.1 to 1 µM. Next, `CC(C)c1ccccc1-n1cc(O)c(=O)c(C(=O)O)n1` [Compound 8]: no less than 1 µM; `Cc1cccc(C)c1-n1cc(O)c(=O)c(C(=O)O)n1` [Compound 12]: 0.1 to 1 µM; `COc1ccc(-c2ccccc2)cc1-n1cc(O)c(=O)c(C(=O)O)n1` [Compound 13]: 0.1 to 1 µM. For the compound `O=C(O)c1nn(-c2ccccc2OC(F)F)cc(O)c1=O` [Compound 14], the IC50 is no less than 1 µM. Take `Cc1ccc2cccc(-n3cc(O)c(=O)c(C(=O)O)n3)c2n1` [Compound 15]: the IC50 was 0.1 to 1 µM.

Take `CC(C)(C)c1ccccc1-n1cc(O)c(=O)c(C(=O)O)n1` [Compound 16]: the IC50 is 0.1 to 1 µM.

Turning to `CCCCNS(=O)(=O)c1cccc(-n2cc(O)c(=O)c(C(=O)O)n2)c1` [Compound 22], the IC50 lay within 0.1 to 1 µM. Consider `CCOc1ccccc1-n1cc(O)c(=O)c(C(=O)O)n1` [Compound 23], for which the IC50 lay within 0.1 to 1 µM. Next, `CCCCOc1ccc(-n2cc(O)c(=O)c(C(=O)O)n2)cc1` [Compound 25]: no less than 1 µM; `COc1cc(OC)cc(-n2cc(O)c(=O)c(C(=O)O)n2)c1` [Compound 26]: 0.1 to 1 µM; `O=C(O)c1nn(-c2ccc(C(F)(F)F)cc2)cc(O)c1=O` [Compound 27]: 0.1 to 1 µM. Next, `O=C(O)c1nn(-c2ccc(N3CCCCC3)cc2)cc(O)c1=O` [Compound 28]: no less than 1 µM.

For `O=C(O)c1nn(-c2ccccc2CCO)cc(O)c1=O` [Compound 29], the IC50 fell in the range of 0.1 to 1 µM. For `O=C(O)c1nn(-c2cccc(OC(F)(F)F)c2)cc(O)c1=O` [Compound 30] the value was no less than 1 µM. For `CS(=O)(=O)c1ccc(-n2cc(O)c(=O)c(C(=O)O)n2)cc1` [Compound 31] the value was 0.1 to 1 µM; for `O=C(O)c1nn(-c2ccc3c(c2)OCCO3)cc(O)c1=O` [Compound 32], 0.1 to 1 µM; for `O=C(O)c1nn(-c2ccc3cn[nH]c3c2)cc(O)c1=O` [Compound 33], 0.1 to 1 µM.

In the case of `CCc1ccccc1-c1ccccc1-n1cc(O)c(=O)c(C(=O)O)n1` [Compound 34], the IC50 lay within 0.1 to 1 µM.

As for `N#Cc1ccc(-c2ccccc2-n2cc(O)c(=O)c(C(=O)O)n2)cc1` [Compound 36], the IC50 was in the range of 0.1 to 1 µM. Next, `CC(C)Cc1ccc(-c2ccccc2-n2cc(O)c(=O)c(C(=O)O)n2)cc1` [Compound 37]: 0.1 to 1 µM; `Cc1ccccc1-c1ccccc1-n1cc(O)c(=O)c(C(=O)O)n1` [Compound 38]: 0.1 to 1 µM; `CC(C)c1ccccc1-c1ccccc1-n1cc(O)c(=O)c(C(=O)O)n1` [Compound 39]: 0.1 to 1 µM.

In the case of `O=C(O)c1nn(-c2ccccc2-c2ccccc2OC(F)(F)F)cc(O)c1=O` [Compound 40], the IC50 is 0.1 to 1 µM.

With `O=C(O)c1nn(-c2ccccc2N2CCOCC2)cc(O)c1=O` [Compound 41], the IC50 fell in the range of 0.1 to 1 µM. For `O=C(O)c1nn(-c2ccc3[nH]ncc3c2)cc(O)c1=O` [Compound 42] the value was 0.1 to 1 µM.

Turning to `O=C(O)c1nn(-c2ccc(Oc3ccccc3)cc2)cc(O)c1=O` [Compound 43], the IC50 is 0.1 to 1 µM.

On to `CCOC(=O)c1nn(-c2ccccc2S(=O)(=O)c2ccccc2)cc(O)c1=O` [Compound 44], for which the IC50 was no less than 1 µM.

On to `O=C(O)c1nn(-c2ccccc2N2CCCC2)cc(O)c1=O` [Compound 200, 5-hydroxy-4-oxo-1-(2-(pyrrolidin-1-yl)phenyl)-1,4-dihydropyridazine-3-carboxylic acid], for which the IC50 was 0.1 to 1 µM.

On to `O=C(O)c1nn(-c2cc(C(F)(F)F)ccc2N2CCCC2)cc(O)c1=O` [Compound 201], for which the IC50 lay within 0.1 to 1 µM.

For `CC1CCN(c2ccccc2-n2cc(O)c(=O)c(C(=O)O)n2)CC1` [Compound 202], the IC50 fell in the range of 0.1 to 1 µM. For `CN1CCN(c2ccccc2-n2cc(O)c(=O)c(C(=O)O)n2)CC1` [Compound 204] the value was no less than 1 µM; for `CCN1CCN(c2ccccc2-n2cc(O)c(=O)c(C(=O)O)n2)CC1` [Compound 205], no less than 1 µM; for `CC(C)(C)C1CCN(c2ccccc2-n2cc(O)c(=O)c(C(=O)O)n2)CC1` [Compound 208], 0.1 to 1 µM. Next, `CC1(C)CCCN(c2ccccc2-n2cc(O)c(=O)c(C(=O)O)n2)C1` [Compound 209]: 0.1 to 1 µM; `Cc1ccc(C)c(-c2ccccc2-n2cc(O)c(=O)c(C(=O)O)n2)c1` [Compound 300, 1-(2′,5′-dimethylbiphenyl-2-yl)-5-hydroxy-4-oxo-1,4-dihydropyidazine-3-carboxylic acid]: 0.1 to 1 µM; `Cc1cc(C)cc(-c2ccccc2-n2cc(O)c(=O)c(C(=O)O)n2)c1` [Compound 301]: 0.1 to 1 µM.

Regarding `CC(C)(C)c1ccc(-c2ccccc2-n2cc(O)c(=O)c(C(=O)O)n2)cc1` [Compound 302], the IC50 is 0.1 to 1 µM. For `Cc1ccc(-c2ccccc2-n2cc(O)c(=O)c(C(=O)O)n2)cc1` [Compound 303] the value was 0.1 to 1 µM. For `CC(C)(C)OC(=O)N1CCC(c2ccccc2-n2cc(O)c(=O)c(C(=O)O)n2)CC1` [Compound 304] the value was no less than 1 µM. With `Cc1cc(F)ccc1-c1ccccc1-n1cc(O)c(=O)c(C(=O)O)n1` [Compound 305], the IC50 fell in the range of 0.1 to 1 µM. For `O=C(O)c1nn(-c2ccccc2-c2ccc(F)cc2)cc(O)c1=O` [Compound 306] the value was 0.1 to 1 µM; for `O=C(O)c1nn(-c2ccccc2-c2ccc(C(F)(F)F)cc2)cc(O)c1=O` [Compound 307], 0.1 to 1 µM.

As to `O=C(O)c1nn(-c2ccccc2C2CCCCC2)cc(O)c1=O` [Compound 308], the IC50 was in the range of 0.1 to 1 µM. For `Cc1cccc(-c2ccccc2-n2cc(O)c(=O)c(C(=O)O)n2)c1C` [Compound 309] the value was no less than 1 µM; for `CC(C)Oc1ccccc1-c1ccccc1-n1cc(O)c(=O)c(C(=O)O)n1` [Compound 310], 0.1 to 1 µM; for `O=C(O)c1nn(-c2ccccc2-c2ccccc2Oc2ccccc2)cc(O)c1=O` [Compound 311], less than 0.1 µM.

Consider `O=C(O)c1nn(-c2ccccc2C2CCNCC2)cc(O)c1=O` [Compound 312], for which the IC50 is no less than 1 µM. Next, `O=C(O)c1nn(-c2ccccc2-c2ccc3cc[nH]c3c2)cc(O)c1=O` [Compound 313]: 0.1 to 1 µM; `COc1ccccc1-c1ccccc1-n1cc(O)c(=O)c(C(=O)O)n1` [Compound 315]: 0.1 to 1 µM. With `O=C(O)c1nn(-c2ccccc2-c2cccc3c2oc2ccccc23)cc(O)c1=O` [Compound 316], the IC50 fell in the range of 0.1 to 1 µM.

On to `O=C(O)c1nn(-c2ccccc2-c2ccccc2OC2CCCCC2)cc(O)c1=O` [Compound 317], for which the IC50 is less than 0.1 µM. For the compound `COc1cccc(-c2ccccc2-n2cc(O)c(=O)c(C(=O)O)n2)c1` [Compound 318], the IC50 was 0.1 to 1 µM. Next, `COc1ccc(Cl)c(-c2ccccc2-n2cc(O)c(=O)c(C(=O)O)n2)c1` [Compound 322]: 0.1 to 1 µM; `COc1cc(Cl)cc(-c2ccccc2-n2cc(O)c(=O)c(C(=O)O)n2)c1` [Compound 323]: 0.1 to 1 µM; `Cn1ccc2ccc(-c3ccccc3-n3cc(O)c(=O)c(C(=O)O)n3)cc21` [Compound 324]: 0.1 to 1 µM. Next, `CC(C)COc1ccccc1-c1ccccc1-n1cc(O)c(=O)c(C(=O)O)n1` [Compound 325]: less than 0.1 µM. As to `COc1ccccc1CCn1cc(O)c(=O)c(C(=O)O)n1` [Compound 413], the IC50 was less than 0.1 µM.

`COc1cccc(CCn2cc(O)c(=O)c(C(=O)O)n2)c1` [Compound 414]: the IC50 was less than 0.1 µM. For `COc1ccc(CCn2cc(O)c(=O)c(C(=O)O)n2)cc1` [Compound 415] the value was 0.1 to 1 µM; for `COc1ccc(CCn2cc(O)c(=O)c(C(=O)O)n2)cc1OC` [Compound 417], 0.1 to 1 µM; for `O=C(O)c1nn(C2CCc3ccccc3C2=O)cc(O)c1=O` (stereo not shown) [Compound 418], 0.1 to 1 µM.

As for `O=C(O)c1nn(CC2(c3cc(C(F)(F)F)cc(C(F)(F)F)c3)CCCC2)cc(O)c1=O` [Compound 419], the IC50 was less than 0.1 µM. For the compound `CCOC(=O)c1nn(CC2(c3cc(C(F)(F)F)cc(C(F)(F)F)c3)CCCC2)cc(O)c1=O` [Compound 420], the IC50 lay in the range of 0.1 to 1 µM. `Cc1cn(C2(Cn3cc(O)c(=O)c(C(=O)O)n3)CCCC2)c2ncccc12` [Compound 425]: the IC50 was in the range of 0.1 to 1 µM.

In the case of `O=C(NC1CC1)c1nn(CC2(c3cc(C(F)(F)F)cc(C(F)(F)F)c3)CCCC2)cc(O)c1=O` [Compound 508], the IC50 fell in the range of 0.1 to 1 µM. With `CNC(=O)c1nn(-c2ccccc2-c2ccccc2OC(F)(F)F)cc(O)c1=O` [Compound 520], the IC50 was no less than 1 µM. Next, `CNC(=O)c1nn(-c2ccccc2-c2ccc3cc[nH]c3c2)cc(O)c1=O` [Compound 521]: no less than 1 µM. For `CNC(=O)c1nn(-c2ccccc2-c2cc(C)ccc2OC(C)C)cc(O)c1=O` [Compound 522] the value was 0.1 to 1 µM.

Consider `CNC(=O)c1nn(-c2ccccc2N2CCN(C)CC2)cc(O)c1=O` [Compound 600, 1,4-dihydro-5-hydroxy-N-methyl-1-(2-(4-methylpiperazin-1-yl)phenyl)-4-oxopyridazine-3-carboxamide], for which the IC50 was no less than 1 µM. For `CNC(=O)c1nn(-c2ccc3c(c2)OCCO3)cc(O)c1=O` [Compound 601, 1,4-dihydro-1-(2,3-dihydrobenzo[b][1,4]dioxin-6-yl)-5-hydroxy-N-methyl-4-oxopyridazine-3-carboxamide] the value was no less than 1 µM.

On to `CNC(=O)c1nn(CCc2cccc(C(F)(F)F)c2)cc(O)c1=O` [Compound 608], for which the IC50 is no less than 1 µM. Turning to `CCN1CCN(c2ccccc2-n2cc(O)c(=O)c(C(=O)NC)n2)CC1` [Compound 615], the IC50 is no less than 1 µM. In the case of `CNC(=O)c1nn(-c2ccccc2N2CCCC(C)(C)C2)cc(O)c1=O` [Compound 616], the IC50 is no less than 1 µM.

Turning to `NC(=O)c1nn(-c2ccccc2S(=O)(=O)c2ccccc2)cc(O)c1=O` [Compound 617], the IC50 is no less than 1 µM.

Source of the values: patent US10364226B2, “Pyridazinone compounds and uses thereof” (priority 2013, dated 2019).
